The values that follow come from US9415134B2, “Fosfomycin preparation, a method for producing the preparation, and a polymethylmethacrylate bone cement powder containing the preparation” (HERAEUS MEDICAL GMBH, priority 2014, dated 2016).

SMILES strings stand for the structures.

One series deals with ESBL. The note with it: cited from earlier work.
Series [1] has as its system gram-negative and gram-positive bacteria including methicillin-resistant staphylococci. The note with it: cited from earlier work.
For series [2], the system named is vancomycin-resistant enterococci. The note with it: cited from earlier work.
Series [3] deals with vancomycin-resistant Staphylococcus aureus (VRS). The note with it: cited from earlier work.
Series [4] concerns the target MurA (UDP-N-acetylglucosamine-enolpyruvyl-transferase) (Escherichia coli, UniProt P0A749). The note with it: cited from earlier work.
A short description of series [5]: Hygroscopic properties of fosfomycin salts. Format: physicochemical. The note with it: salt alone, atmospheric humidity. The source says: Both salts attract atmospheric humidity and deliquesce in the process. Experiments have shown that these salts, in the dry state, can be integrated into cement powders of polymethylmethacrylate bone cements. However, said cement powders also attract atmospheric humidity during storage on air, upon which the antibiotic particles deliquesce. This can cause the cement powder to clump. For this reason, both of these fosfomycin salts are unsuitable or poorly suitable for industrial production of antibiotic polymethylmethacrylate bone cement powders.

Sequence of MurA (UDP-N-acetylglucosamine-enolpyruvyl-transferase) (P0A749 whole entry): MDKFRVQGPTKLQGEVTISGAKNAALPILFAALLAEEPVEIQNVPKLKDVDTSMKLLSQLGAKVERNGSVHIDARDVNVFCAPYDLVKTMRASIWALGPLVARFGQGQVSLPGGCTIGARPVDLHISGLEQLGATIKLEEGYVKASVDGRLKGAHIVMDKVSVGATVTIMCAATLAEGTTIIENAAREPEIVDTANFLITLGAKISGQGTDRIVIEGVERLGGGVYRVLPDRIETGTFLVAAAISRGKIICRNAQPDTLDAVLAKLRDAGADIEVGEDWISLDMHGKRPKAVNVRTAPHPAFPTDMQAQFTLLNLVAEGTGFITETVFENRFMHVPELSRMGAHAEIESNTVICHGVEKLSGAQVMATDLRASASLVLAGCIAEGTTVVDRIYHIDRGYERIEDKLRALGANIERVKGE

For the compound `C[C@@H]1O[C@@H]1P(=O)(O)O` [Fosfomycin, (2R,3S)-3-methyloxiranphosphonic acid], the Antibacterial efficacy entry (in the series with ESBL; in series [2]; in series [3]) was “efficacious” throughout. In addition, in series [1] (gram-negative and gram-positive bacteria including methicillin-resistant staphylococci), the Antibacterial activity result is “active”. Further, the “Mode of antibacterial action” value in series [1] (in susceptible bacteria) is “bactericidal”. In series [4], the “Inhibition of MurA” value is on record as “inhibits”.
Regarding `C[C@@H]1O[C@@H]1P(=O)([O-])[O-].O.[Ca+2]` [calcium salt of fosfomycin, monohydrate of the calcium salt of fosfomycin], in series [5], the Hygroscopic properties result is recorded as “extraordinarily hygroscopic”.
Turning to `C[C@@H]1O[C@@H]1P(=O)([O-])[O-].[Na+].[Na+]` [sodium salt, disodium salt of fosfomycin], the Hygroscopic properties entry in series [5] was “extraordinarily hygroscopic”.
On the same count and under the same terms, then `C[C@@H]1O[C@@H]1P(=O)(O)O.NC(CO)(CO)CO` [trometamol-fosfomycin], with “somewhat hygroscopic”.
